The nature of this series: Lability of drug held in molten mixture for 60 minutes. The series is classed as physicochemical. The following applies: 50 wt % azithromycin dihydrate. As for the experimental part: The multiparticulates formed by the process of the present invention comprise a labile drug and a carrier. As used herein the term “labile” refers to drugs that degrade by at least 0.01 wt % when held in a molten mixture of drug, carrier and optional excipient(s) for 60 minutes. Details on carriers and optional excipients are discussed below. The term “drug” as used herein includes, by way of example and not of limitation, any physiologically or pharmacologically active substance that produces a localized or systemic effect in animals. The term “animals” includes mammals, particularly humans, as well as other animals.
Labile drugs may be identified experimentally by determining whether the drug chemically reacts or degrades when held in the molten mixture of drug, carrier and optional excipients for 60 minutes. In general, drug degradation may be measured using any conventional method for measuring the purity or potency of drug in a pharmaceutical composition. For example, the purity or potency of the drug substance prior to formation of the molten mixture may be measured using high-performance liquid chromatography (HPLC) or other analytical techniques well known in the art. […] The purity or potency of the drug after being in the molten mixture for 60 minutes is then determined. […]

In the case of `CC[C@H]1OC(=O)[C@H](C)[C@@H](O[C@H]2C[C@@](C)(OC)[C@@H](O)[C@H](C)O2)[C@H](C)[C@@H](O[C@@H]2O[C@H](C)C[C@H](N(C)C)[C@H]2O)[C@](C)(O)C[C@@H](C)CN(C)[C@H](C)[C@@H](O)[C@]1(C)O` [azithromycin, 9a-aza-9a-methyl-9-deoxo-9a-homoerythromycin A], the “lability in molten mixture” value reads like this: (47 wt % COMPRITOL 888 ATO, 3 wt % LUTROL F127 at 90° C. for 60 minutes) “labile”; (48 wt % microcrystalline wax, 2 wt % LUTROL F127, held 60 minutes) “not labile”.
